We go through 11 molecules from US20230232831A1, “MONOTERPENOID AND PHENYLPROPANOID CARBONATE ESTERS AND METHODS OF THEIR MAKING AND USE AS REPELLENTS” (IOWA STATE UNIVERSITY RESEARCH FOUNDATION, INC., priority 2020, published 2023).

Entries after “also recorded” stand apart in the source; their conditions may differ.

What all share (type): in vivo
Experiment [1] has as its system Culex pipiens. The experiment is described as follows: Short-term spatial repellency, static air chamber. Particulars: for short-term repellency (result in words): 1 mL of 0.5% solution on filter paper, 15-150 min. As to the method:
FIG. 4 is a graph showing the repellency observed when 1 mL of a 0.5% solution of each compound was applied to a filter paper, dried for 15 minutes, and placed at the treated end of the repellency chamber. FIG. 6 is a graph showing repellency of various compounds against the mosquito species Culex pipiens observed when 1 mL of a 0.5% solution of each compound was applied to a filter paper, dried for 15 minutes, and placed at the treated end of the repellency chamber. The static air chamber used for the repellency assay has been described previously (Klimavicz et al., “Monoterpenoid Isovalerate Esters as Long-lasting Spatial Mosquito Repellents,” In Advances in the Biorational Control of Medicaland Veterinary Pests, American Chemical Society: 2018; Vol. 1289, pp 205-217; Peterson et al., “Identification of Components of Osage Orange Fruit (Maclura pomifera) and Their Repellency to German Cockroaches,” J. Essent. Oil Res. 14:233-236 (2002), which are hereby incorporated by reference in their entirety). For each assay run, a 90-mm Whatman No. 1 filter paper was treated with 1 mL acetone solution containing 0.5% w/v of a carbonate ester. The filter paper was supported upon several pins during the addition of the acetone solution to diminish wicking of the solution away from the filter paper, and the solution was added over approximately thirty seconds to allow acetone to evaporate during the addition to prevent dripping. After the addition of the solution was complete, remaining acetone was permitted to evaporate for […] before testing. A 600-mm-long clear glass cylinder with an inner diameter of 85 mm and a single hole (20 mm diameter) halfway along the side of the cylinder was used for the repellency chamber. One end of the chamber was capped with a glass petri dish (inner diameter 90 mm) containing an untreated 90-mm Whatman No. 1 filter paper, while the other end was likewise covered with a similar petri dish containing the treated filter paper. Immediately after capping both ends of the chamber, 20 non-blood-fed female Culex pipiens mosquitoes were anesthetized with carbon dioxide, and placed into the repellency chamber through the hole in the side of the cylinder via a funnel. The hole was sealed, and the number of mosquitoes on the treated and untreated halves were recorded at 15, 30, 60, 90, 120, and 150 minutes after introduction of the mosquitoes to the chamber. All statistical analysis was performed in R. To determine repellency of a given compound, the number of repelled mosquitoes and the total number of mosquitos the chamber for each trial at a given time point were fit to a beta-binomial distribution to account for overdispersion in the estimated repellency. Because percentage repellency is bound between -100% (completely attracting) and 100% (completely repelling), percentage repellency shown with error bars representing 50% confidence intervals determined from a non-chance-corrected beta-binomial fit to the data, using an inverse link function equal to the psychometric function for the duo-trio test. Statistical significance was determined by nonoverlap of these confidence intervals. Estimates of the proportion of mosquitoes repelled in the chamber was then transformed to percentage repellency, which is expressed as […]

Experiment [2] has as its system Culex pipiens. Description: Long-term repellency, treated filter paper placed in chamber 5 hours after application. Particulars: filter paper placed 5 hours after compound was applied. As for the experimental part: FIG. 5 is a graph showing the repellency observed when 1 mL of each compound was applied to a filter paper placed at the treated end of the repellency chamber 5 hours after compound was applied. FIG. 8 is a graph showing the repellency of various compounds observed when 1 mL of each compound was applied to a filter paper placed at the treated end of the repellency chamber 5 hours after compound was applied. An array of older and newly synthesized carbonates was chosen and tested for repellency activity. Six compounds were screened according to long-term repellency assays and three compounds were screened according to short-term repellency assays. These assays were all conducted using Culex pipiens mosquitoes. The compounds tested are illustrated in Table 1. An array of carbonates was chosen and tested for repellency activity. Some compounds were screened according to long-term repellency assays and some compounds were screened according to short-term repellency assays. These assays were conducted using Culex pipiens mosquitoes or Aedes aegypti mosquitoes.

Experiment [3] has as its system Culex pipiens. The experiment is described as follows: Short-term spatial repellency, static air chamber. Particulars: short-term assay, 1 mL of 0.5% solution, dried 15 minutes.

On to `CCOC(=O)OCCC(C)CCC=C(C)C` (stereo not shown) [Compound 1a, Citronellyl ethyl carbonate], for which the “short-term repellency (result in words)” value in the experiment on Culex pipiens [1] is recorded as “numerically superior out of all the citronellyl carbonates”. The “mosquitoes repelled in short-term repellency assay” value in the experiment on Culex pipiens [1] (1 mL of 0.5% w/v acetone solution on filter paper, assay extending out to 2.5 hours) is listed as “approximately 90%”.
As to `COC(=O)OCCC(C)CCC=C(C)C` (stereo not shown) [Compound 1b, Citronellyl methyl carbonate], in the experiment with Culex pipiens [1], the “short-term repellency (result in words)” value is given as “numerically, but not statistically, less repellent than 1a”.
With `CC(C)=CCCC(C)CCOC(=O)OC(C)C` (stereo not shown) [Compound 1c, Citronellyl isopropyl carbonate], in the experiment with Culex pipiens [1], the “short-term repellency (result in words)” value is given as “numerically, but not statistically, less repellent than 1a”.
On the same count and under the same terms, then `CC(C)=CCCC(C)CCOC(=O)OCC(C)C` (stereo not shown) [Compound 1d, Citronellyl isobutyl carbonate], with “numerically, but not statistically, less repellent than 1a”; and `CC(C)=CCCC(C)CCOC(=O)Oc1ccccc1` (stereo not shown) [Compound 1f, Citronellyl phenyl carbonate], with “weakest repellent effect”.
For the molecule `CCOC(=O)Oc1cc(C)ccc1C(C)C` [Compound 2a, Ethyl thymyl carbonate], the results for the “short-term repellency (result in words)” value in the experiment on Culex pipiens [1] and in the experiment with Culex pipiens [1] (listed as Ethyl thymyl carbonate) were “final estimated repellency was approximately the same” and “excellent short-term repellent”, respectively.
With `Cc1ccc(C(C)C)c(OC(=O)OCC(C)C)c1` [Compound 2d, Isobutyl thymyl carbonate], the “short-term repellency (result in words)” value with Culex pipiens [1] is “slower onset of high repellency; also recorded: final estimated repellency was approximately the same”.
In the case of `C=C(C)C1CCC(C)CC1OC(=O)OCC` (stereo not shown) [Compound 3a, Ethyl isopulegyl carbonate], the “long-term repellency (result in words)” value in the experiment with Culex pipiens [2] is reported as “not able to repel mosquitoes very well at all”.
On to `CCOC(=O)OC1CC2CCC1(C)C2(C)C` (stereo not shown) [Compound 7a, Bornyl ethyl carbonate], for which the “short-term repellency (result in words)” value with Culex pipiens [1] is “only modest repellency”.
With `COC(=O)Oc1cc(C)ccc1C(C)C` [Compound 4249, Thymyl methyl carbonate], in the experiment on Culex pipiens [3], the “mortality seen in the repellency chamber” value is “significant mortality”.
In the case of `CCOC(=O)OC1C=C(C)C2CC1C2(C)C` (stereo not shown) [Compound 4251, Verbenyl ethyl carbonate], the “mortality seen in the repellency chamber” value with Culex pipiens [3] was “Very minimal amounts of mortality”.
